Measurements from patent publication US20260216134A1, “CHARGED PI-CONJUGATED MOLECULES FOR THE TREATMENT OF MICROBIAL INFECTIONS” (priority 2023, published 2026).
“Also recorded” adds a separate entry of the source.

What was measured:
Gram-positive strains = assay: MIC / MIC50 by broth microdilution in panel of Gram-positive strains; assay type: cell-based; details: MIC50 over all Gram-positive strains tested (Table 2)
Method: Antibacterial activity was assessed by determining the minimal inhibitory concentration (MIC) and the minimal bactericidal concentrations (MBC) and by monitoring time-dependent bacterial killing of exponentially growing cells. Bacterial cell suspensions (OD600≈0.02 in cation-adjusted Muller-Hinton Broth) were treated with increasing concentrations of the different molecules. The minimal inhibitory concentration (MIC) was defined as the minimal concentration of the molecule resulting in complete bacterial growth arrest. The minimal bactericidal concentration (MBC) was defined as the lowest concentration of the molecule that killed 99.9% of the inoculum. A molecule was determined to be bactericidal if the ratio of the MBC to the MIC was less than 4 to 6. […] In M. smegmatis, the antibacterial activity of charged pi-conjugated compounds was generally lower.
The MIC values for all Gram-positive strains tested (Table 2) were used to calculate the MIC50, i.e., the minimum inhibitory concentration needed to inhibit the growth of 50% of the tested isolates (FIG. 5A). […] When the average MIC50 values were evaluated, the most susceptible bacterial genera were Streptococcus sp., followed by Staphylococcus sp. In contrast, Propionibacterium sp. had the highest average MIC50 (FIG. 5B).
The broth microdilution method was used to determine the MIC of charged pi-conjugated compounds according to the CLSI guidelines. Charged pi-conjugated compound stock solutions (16 mM) were prepared in dimethyl sulfoxide (DMSO). Serial twofold dilutions of the charged pi-conjugated compounds were freshly prepared using the appropriate liquid media (Table 2), and 100 μL of each dilution was added to the appropriate wells of 96-well microtiter plates. The bacterial inoculum was further diluted in liquid media, and 100 μL was added to each well, resulting in a final cell density of ≈5×10^5 CFU mL^−1. […] A molecule was determined to be bactericidal if the ratio of the MBC to the MIC was less than 4 to 6. […]

A375 tumors = assay: Intratumoral injection into A375 tumors in mice; assay type: in vivo
Method: Cy7.5-amine was intratumorally injected at the dose of 8 μg (equivalent to 50 μL of 200 μM Cy7.5-amine solution in PBS containing 2.5% DMSO. As control 50 μL of 2.5% DMSO in PBS solution was injected intratumorally. The blue dots indicate the days when the tumors were treated.
Then we applied Cy7.5-amine (FIG. 22C) by intratumoral injection into A375 tumors as described in FIG. 33.

In the case of `C[N+]1=C(/C=C/C2=CC(=C/C=C3/N(CCCCCC(=O)NCCCCCCN)c4ccc5ccccc5c4C3(C)C)/CCC2)C(C)(C)c2c1ccc1ccccc21.Cl.[Cl-]` [Cy7.5-amine, Cyanine 7.5-amine], the “antibacterial activity according to MIC50” value (Gram-positive strains) is reported as “strongest antibacterial activity”, the “mice free of cancer” value (A375 tumors; after 7 months of the study) is reported as 2 out of 10 and the “loss of A375 tumors” value (A375 tumors; intratumoral 8 μg (50 μL of 200 μM), n=10 mice) is reported as 20%. For the same compound, the “toxicity to the mice (body weight relative to control)” value (A375 tumors; intratumoral 200 μM, control 2.5% DMSO) was “no sign of toxicity; also recorded: does not cause change of the mice body weight”.
